Experimental data as given in US8759400B2, “Histone deacetylase inhibitors for enhancing activity of antifungal agents” (MethylGene Inc., priority 2005, dated 2014).
In brackets after ≈: the same amount, converted by molar mass. Read-outs that look alike come from different tables or passages of the source. Values belong to the compound of their own block, whether it stands above or below them.

Key:
HMEC [1] = assay: Mammalian cytotoxicity, MTT reduction
HDAC [2] = assay: HDAC inhibitory activity in fungal protoplasts (Fluor-de-Lys); assay type: cell-based, Candida glabrata; settings: C. glabrata protoplasts
Protocol: (§1) Protoplasts of C. albicans and C. glabrata are prepared by the […] method of Franzusoff et al.

HDAC [3] = assay: as above; assay type: cell-based, Candida albicans; settings: C. albicans protoplasts
Protocol: as §1

C. glabrata (ATCC 90030) [4] = assay: MIC80 and checkerboard synergy with antifungal agents; assay type: cell-based, Candida glabrata; settings: Nakaseomyces glabratus, ATCC90030; compound alone; C. glabrata (ATCC 90030); read-out: MIC80
C. albicans (ATCC 90028) = assay: as above; assay type: cell-based, Candida albicans; settings: Candida albicans, ATCC90028; compound alone; C. albicans (ATCC 90028); read-out: MIC80
ERG11 expression = ERG11 expression with fluconazole (FIG. 3); assay type: cell-based; settings: compound 6 and fluconazole, C. albicans
C. glabrata = assay: Post-antifungal effect (PAFE); assay type: cell-based; settings: itraconazole alone at 0.25 MIC
Protocol: The post-antifungal effect (PAFE) is the time needed to achieve one log10 of cell growth after drug removal. One-two colonies are resuspended in 5 ml YPD. […] Cells are incubated at 30° C. overnight. In the morning, the optical density at 600 nm is read. Cells at A600 the closest but not surpassing 0.3 (early log-phase cells) are picked for further treatments as follows: […] Counts of CFU/ml are performed at time zero, before and after diluting the cells and at predetermined time points in order to determine the PAFE and the cidal potential of each drug combination (FIGS. 5-10).

A. flavus = assay: Clinical isolates, CLSI M38-A broth microdilution and checkerboard; assay type: cell-based; settings: itraconazole alone, 48 hour endpoint, listed as ITR
C. glabrata (ATCC 90030) [5] = assay type: cell-based; settings: agar plates containing 4×MIC of the relevant azole alone
[6] = test system: C. glabrata parent strain (ATCC 90030) and C. glabrata mutants; assay: microbe, parasite or virus in culture; assay type: cell-based; settings: for MIC80: azole alone
A. fumigatus ATCC 1022 = assay: MIC80 and checkerboard synergy, broth microdilution (NCCLS M38-A); assay type: cell-based, Aspergillus fumigatus; settings: A. fumigatus ATCC 1022
HMEC [7] = settings: human
HDAC [8] = assay: HDAC inhibitory activity in fungal protoplasts (Boc-Lys(Ac)-AMC); assay type: cell-based, Aspergillus fumigatus; settings: A. fumigatus protoplasts

HDAC inhibition IC50 (HDAC [2]): > 20 mg/L
HDAC inhibition, per cent in parentheses beside IC50 >20 (HDAC [2]; concentration not given): 22%
HDAC inhibition IC50 (HDAC [3]): >20 mg/L
MIC (C. glabrata (ATCC 90030) [4]): 25 mg/L
MIC (C. albicans (ATCC 90028)): 25 mg/L
Structure (SMILES): O=C(CCc1ccc(CCCc2ccccc2)cc1)NO [Cpd 6]
MTT HMEC (HMEC [1]): 40 µM
ERG11 expression (ERG11 expression): decreases

Structure (SMILES): CCC(C)n1ncn(-c2ccc(N3CCN(c4ccc(OCC5COC(Cn6cncn6)(c6ccc(Cl)cc6Cl)O5)cc4)CC3)cc2)c1=O (centres unmarked) [itraconazole, reference compound]
PAFE (C. glabrata): No PAFE
ITR MIC (A. flavus; A. flavus isolate 20351.092): 0.5 mg/L
ITR MIC (A. flavus; A. flavus isolate 20414.083): 1.0 mg/L
frequency of resistant C. glabrata mutants (C. glabrata (ATCC 90030) [5]): 3×10^−7
MIC80 ([6]; C. glabrata mutants resistant to that azole): > 64 mg/L
MIC80 ([6]; C. glabrata parent strain): 1 mg/L (≈ 1.42 µM)
MIC80 itraconazole relative to wild type ([6]; fluconazole-resistant mutants (all)): 64 × wild type
itraconazole MIC80 in presence of Compound 4 ([6]; itraconazole-resistant mutants): ≤ 1 mg/L

Structure (SMILES): Nc1ccccc1NC(=O)c1ccc(CNC(=O)OCc2cccnc2)cc1 [MS275, reference compound]
HDAC inhibition IC50 (HDAC [2]): >20 mg/L
MIC80 (A. fumigatus ATCC 1022; Aspergillus fumigatus, ATCC1022, compound alone, read-out: MIC80): > 128 mg/L
conc. for 4-fold synergy (A. fumigatus ATCC 1022; with ketoconazole, 48 hours): >128 µg/mL
HDAC inhibition IC50 (HDAC [3]): >20 mg/L
MTT HMEC (HMEC [7]): 22 µM
HDAC inhibition IC50 (HDAC [8]): >40 mg/L
MIC80 (C. glabrata (ATCC 90030) [4]): > 64 mg/L
MIC80 (C. albicans (ATCC 90028)): > 128 mg/L
